Assay results: ChEMBL document CHEMBL3044945, “Synthesis of 1,3,5-trisubstituted pyrazoline nucleus containing compounds and screening for antimicrobial activity” (2012)
≈ marks a conversion by molar mass, not a printed value.

Legend:
Assay type in all cases: functional
Bacillus subtilis [1] = assay: Antibacterial activity against Bacillus subtilis MTCC 441 at 1000 ug/ml after 48 hr by cup-plate method; details: MTCC 441, 48 h, read-out: DIZ
Bacillus subtilis [2] = assay: Antibacterial activity against Bacillus subtilis MTCC 441 at 750 ug/ml after 48 hr by cup-plate method; details: MTCC 441, 48 h, read-out: DIZ
Bacillus subtilis [3] = assay: Antibacterial activity against Bacillus subtilis MTCC 441 at 500 ug/ml after 48 hr by cup-plate method; details: MTCC 441, 48 h, read-out: DIZ
Micrococcus luteus [4] = assay: Antibacterial activity against Micrococcus luteus MTCC 1538 after 24 to 48 hr by tube dilution method
Escherichia coli [5] = assay: Antibacterial activity against Escherichia coli MTCC 1573 after 24 to 48 hr by tube dilution method
Penicillium chrysogenum [6] = assay: Antifungal activity against Penicillium chrysogenum MTCC 161 after 24 to 48 hr by tube dilution method
Aspergillus niger [7] = assay: Antifungal activity against Aspergillus niger MTCC 2546 after 24 to 48 hr by tube dilution method
Pseudomonas fluorescens [8] = assay: Antibacterial activity against Pseudomonas fluorescens MTCC 2421 after 24 to 48 hr by tube dilution method
Bacillus pumilus [9] = assay: Antibacterial activity against Bacillus pumilus MTCC 1456 after 24 to 48 hr by tube dilution method
Pseudomonas aeruginosa [10] = assay: Antibacterial activity against Pseudomonas aeruginosa MTCC 424 after 24 to 48 hr by tube dilution method
Staphylococcus aureus [11] = assay: Antibacterial activity against Staphylococcus aureus MTCC 1430 after 24 to 48 hr by tube dilution method
Penicillium chrysogenum [12] = assay: Antifungal activity against Penicillium chrysogenum MTCC 161 at 1250 ug/ml after 48 hr by cup-plate method; details: MTCC 161, 48 h, read-out: DIZ
Penicillium chrysogenum [13] = assay: Antifungal activity against Penicillium chrysogenum MTCC 161 at 1000 ug/ml after 48 hr by cup-plate method; details: MTCC 161, 48 h, read-out: DIZ
Penicillium chrysogenum [14] = assay: Antifungal activity against Penicillium chrysogenum MTCC 161 at 750 ug/ml after 48 hr by cup-plate method; details: MTCC 161, 48 h, read-out: DIZ
Penicillium chrysogenum [15] = assay: Antifungal activity against Penicillium chrysogenum MTCC 161 at 500 ug/ml after 48 hr by cup-plate method; details: MTCC 161, 48 h, read-out: DIZ
Penicillium chrysogenum [16] = assay: Antifungal activity against Penicillium chrysogenum MTCC 161 at 250 ug/ml after 48 hr by cup-plate method; details: MTCC 161, 48 h, read-out: DIZ
Penicillium chrysogenum [17] = assay: Antifungal activity against Penicillium chrysogenum MTCC 161 at 100 ug/ml after 48 hr by cup-plate method; details: MTCC 161, 48 h, read-out: DIZ
Aspergillus niger [18] = assay: Antifungal activity against Aspergillus niger MTCC 2546 at 1000 ug/ml after 48 hr by cup-plate method; details: MTCC 2546, 48 h, read-out: DIZ
Aspergillus niger [19] = assay: Antifungal activity against Aspergillus niger MTCC 2546 at 500 ug/ml after 48 hr by cup-plate method; details: MTCC 2546, 48 h, read-out: DIZ
Aspergillus niger [20] = assay: Antifungal activity against Aspergillus niger MTCC 2546 at 250 ug/ml after 48 hr by cup-plate method; details: MTCC 2546, 48 h, read-out: DIZ
Aspergillus niger [21] = assay: Antifungal activity against Aspergillus niger MTCC 2546 at 100 ug/ml after 48 hr by cup-plate method; details: MTCC 2546, 48 h, read-out: DIZ
Pseudomonas fluorescens [22] = assay: Antibacterial activity against Pseudomonas fluorescens MTCC 2421 at 1250 ug/ml after 48 hr by cup-plate method; details: MTCC 2421, 48 h, read-out: DIZ
Pseudomonas fluorescens [23] = assay: Antibacterial activity against Pseudomonas fluorescens MTCC 2421 at 1000 ug/ml after 48 hr by cup-plate method; details: MTCC 2421, 48 h, read-out: DIZ
Pseudomonas fluorescens [24] = assay: Antibacterial activity against Pseudomonas fluorescens MTCC 2421 at 500 ug/ml after 48 hr by cup-plate method; details: MTCC 2421, 48 h, read-out: DIZ
Pseudomonas fluorescens [25] = assay: Antibacterial activity against Pseudomonas fluorescens MTCC 2421 at 250 ug/ml after 48 hr by cup-plate method; details: MTCC 2421, 48 h, read-out: DIZ
Escherichia coli [26] = assay: Antibacterial activity against Escherichia coli MTCC 1573 at 1250 ug/ml after 48 hr by cup-plate method; details: MTCC 1573, 48 h, read-out: DIZ
Micrococcus luteus [27] = assay: Antibacterial activity against Micrococcus luteus MTCC 1538 at 1000 ug/ml after 48 hr by cup-plate method; details: MTCC 1538, 48 h, read-out: DIZ
Micrococcus luteus [28] = assay: Antibacterial activity against Micrococcus luteus MTCC 1538 at 750 ug/ml after 48 hr by cup-plate method; details: MTCC 1538, 48 h, read-out: DIZ
Escherichia coli [29] = assay: Antibacterial activity against Escherichia coli MTCC 1573 at 500 ug/ml after 48 hr by cup-plate method; details: MTCC 1573, 48 h, read-out: DIZ
Escherichia coli [30] = assay: Antibacterial activity against Escherichia coli MTCC 1573 at 250 ug/ml after 48 hr by cup-plate method; details: MTCC 1573, 48 h, read-out: DIZ
Micrococcus luteus [31] = assay: Antibacterial activity against Micrococcus luteus MTCC 1538 at 1250 ug/ml after 48 hr by cup-plate method; details: MTCC 1538, 48 h, read-out: DIZ
Micrococcus luteus [32] = assay: Antibacterial activity against Micrococcus luteus MTCC 1538 at 500 ug/ml after 48 hr by cup-plate method; details: MTCC 1538, 48 h, read-out: DIZ
Micrococcus luteus [33] = assay: Antibacterial activity against Micrococcus luteus MTCC 1538 at 250 ug/ml after 48 hr by cup-plate method; details: MTCC 1538, 48 h, read-out: DIZ
Bacillus pumilus [34] = assay: Antibacterial activity against Bacillus pumilus MTCC 1456 at 1250 ug/ml after 48 hr by cup-plate method; details: MTCC 1456, 48 h, read-out: DIZ
Bacillus pumilus [35] = assay: Antibacterial activity against Bacillus pumilus MTCC 1456 at 1000 ug/ml after 48 hr by cup-plate method; details: MTCC 1456, 48 h, read-out: DIZ
Bacillus pumilus [36] = assay: Antibacterial activity against Bacillus pumilus MTCC 1456 at 250 ug/ml after 48 hr by cup-plate method; details: MTCC 1456, 48 h, read-out: DIZ
Staphylococcus aureus [37] = assay: Antibacterial activity against Staphylococcus aureus MTCC 1430 at 750 ug/ml after 48 hr by cup-plate method; details: MTCC 1430, 48 h, read-out: DIZ
Staphylococcus aureus [38] = assay: Antibacterial activity against Staphylococcus aureus MTCC 1430 at 500 ug/ml after 48 hr by cup-plate method; details: MTCC 1430, 48 h, read-out: DIZ
Staphylococcus aureus [39] = assay: Antibacterial activity against Staphylococcus aureus MTCC 1430 at 250 ug/ml after 48 hr by cup-plate method; details: MTCC 1430, 48 h, read-out: DIZ
Pseudomonas aeruginosa [40] = assay: Antibacterial activity against Pseudomonas aeruginosa MTCC 424 at 1000 ug/ml after 48 hr by cup-plate method; details: MTCC 424, 48 h, read-out: DIZ
Pseudomonas aeruginosa [41] = assay: Antibacterial activity against Pseudomonas aeruginosa MTCC 424 at 750 ug/ml after 48 hr by cup-plate method; details: MTCC 424, 48 h, read-out: DIZ
Pseudomonas aeruginosa [42] = assay: Antibacterial activity against Pseudomonas aeruginosa MTCC 424 at 500 ug/ml after 48 hr by cup-plate method; details: MTCC 424, 48 h, read-out: DIZ
Pseudomonas aeruginosa [43] = assay: Antibacterial activity against Pseudomonas aeruginosa MTCC 424 at 250 ug/ml after 48 hr by cup-plate method; details: MTCC 424, 48 h, read-out: DIZ
Pseudomonas aeruginosa [44] = assay: Antibacterial activity against Pseudomonas aeruginosa MTCC 424 at 100 ug/ml after 48 hr by cup-plate method; details: MTCC 424, 48 h, read-out: DIZ

Compound `O=[N+]([O-])c1ccc(C2CC(c3cccc4ccccc34)=NN2c2ccc([N+](=O)[O-])cc2)cc1` (centres undefined) has a zone of inhibition at 1000 µg/mL (Bacillus subtilis [1]) of 17 mm, a zone of inhibition at 750 µg/mL (Bacillus subtilis [2]) of 15 mm and a zone of inhibition at 500 µg/mL (Bacillus subtilis [3]) of 13 mm. The MIC (Micrococcus luteus [4]) was 150 µg/mL (≈ 342 µM), the MIC (Escherichia coli [5]) was 50 µg/mL (≈ 114 µM) and the MIC (Penicillium chrysogenum [6]) was 50 µg/mL (≈ 114 µM). The MIC (Aspergillus niger [7]) was 30 µg/mL (≈ 68.4 µM), the MIC (Pseudomonas fluorescens [8]) was 30 µg/mL (≈ 68.4 µM) and the MIC (Bacillus pumilus [9]) was 50 µg/mL (≈ 114 µM). For the same compound, the MIC (Pseudomonas aeruginosa [10]) was 30 µg/mL (≈ 68.4 µM), the MIC (Staphylococcus aureus [11]) was 200 µg/mL (≈ 456 µM) and the zone of inhibition at 1250 µg/mL (Penicillium chrysogenum [12]) was 17 mm. For the same compound, the zone of inhibition at 1000 µg/mL (Penicillium chrysogenum [13]) was 15 mm, the zone of inhibition at 750 µg/mL (Penicillium chrysogenum [14]) was 14 mm and the zone of inhibition at 500 µg/mL (Penicillium chrysogenum [15]) was 12 mm. For the same compound, the zone of inhibition at 250 µg/mL (Penicillium chrysogenum [16]) was 10 mm, the zone of inhibition at 100 µg/mL (Penicillium chrysogenum [17]) was 9 mm and the zone of inhibition at 1000 µg/mL (Aspergillus niger [18]) was 20 mm. For the same compound, the zone of inhibition at 500 µg/mL (Aspergillus niger [19]) was 14 mm, the zone of inhibition at 250 µg/mL (Aspergillus niger [20]) was 13 mm and the zone of inhibition at 100 µg/mL (Aspergillus niger [21]) was 12 mm. For the same compound, the zone of inhibition at 1250 µg/mL (Pseudomonas fluorescens [22]) was 21 mm, the zone of inhibition at 1000 µg/mL (Pseudomonas fluorescens [23]) was 18 mm and the zone of inhibition at 500 µg/mL (Pseudomonas fluorescens [24]) was 11 mm. The zone of inhibition at 250 µg/mL (Pseudomonas fluorescens [25]) was 10 mm, the zone of inhibition at 1250 µg/mL (Escherichia coli [26]) was 17 mm and the zone of inhibition at 1000 µg/mL (Micrococcus luteus [27]) was 13 mm. It also gave a zone of inhibition at 750 µg/mL (Micrococcus luteus [28]) of 12 mm, a zone of inhibition at 500 µg/mL (Escherichia coli [29]) of 12 mm and a zone of inhibition at 250 µg/mL (Escherichia coli [30]) of 11 mm. The zone of inhibition at 1250 µg/mL (Micrococcus luteus [31]) was 15 mm, the zone of inhibition at 500 µg/mL (Micrococcus luteus [32]) was 11 mm and the zone of inhibition at 250 µg/mL (Micrococcus luteus [33]) was 9 mm. The zone of inhibition at 1250 µg/mL (Bacillus pumilus [34]) was 20 mm, the zone of inhibition at 1000 µg/mL (Bacillus pumilus [35]) was 18 mm and the zone of inhibition at 250 µg/mL (Bacillus pumilus [36]) was 8 mm. For the same compound, the zone of inhibition at 750 µg/mL (Staphylococcus aureus [37]) was 11 mm, the zone of inhibition at 500 µg/mL (Staphylococcus aureus [38]) was 10 mm and the zone of inhibition at 250 µg/mL (Staphylococcus aureus [39]) was 9 mm. It also gave a zone of inhibition at 1000 µg/mL (Pseudomonas aeruginosa [40]) of 16 mm, a zone of inhibition at 750 µg/mL (Pseudomonas aeruginosa [41]) of 13 mm and a zone of inhibition at 500 µg/mL (Pseudomonas aeruginosa [42]) of 11 mm. For the same compound, the zone of inhibition at 250 µg/mL (Pseudomonas aeruginosa [43]) was 10 mm and the zone of inhibition at 100 µg/mL (Pseudomonas aeruginosa [44]) was 9 mm.
